These results are taken from ChEMBL document CHEMBL4359887, “Hitting on the move: Targeting intrinsically disordered protein states of the MDM2-p53 interaction” (Eur J Med Chem, 2019).

One assay has as its system SAOS-2. Description: Anticancer activity against p53-deleted human Saos2 cells assessed as inhibition of cell viability measured after 5 days by MTT assay. Particulars: SAOS-2, 120 h; call rule not given here. Background: Formazan colour is commonly taken as a measure of viable cells.
A further assay has as its system U2OS. The assay can be described thus: Anticancer activity against human U2OS cells expressing wild-type p53 assessed as inhibition of cell viability measured after 5 days by MTT assay. Particulars: 120 h.
For assay [1], the system named is HCT-116. The assay can be described thus: Induction of apoptosis in human HCT116 cells expressing wild type p53 assessed as necrotic cells at 20 uM measured after 72 hrs by annexin V-FITC/propidium iodide staining-based flow cytometry analysis (reference value: 0.7 %). Type of assay: functional. (Flow cytometry measures light scatter and fluorescence of single cells or particles in a stream.)

In assay [2] the test system is HCT-116. The assay can be described thus: Induction of apoptosis in human HCT116 cells assessed as late apoptotic cells expressing wild type p53 at 20 uM measured after 72 hrs by annexin V-FITC/propidium iodide staining-based flow cytometry analysis (reference value: 6.8 %). Format: functional.
Assay [3] concerns HCT-116. Description: Induction of apoptosis in human HCT116 cells expressing wild type p53 assessed as early apoptotic cells expressing wild type p53 at 20 uM measured after 72 hrs by annexin V-FITC/propidium iodide staining-based flow cytometry analysis (reference value: 8.8 %). Type of assay: functional.
Assay [4] concerns HCT-116. The assay can be described thus: Induction of apoptosis in human HCT116 cells expressing wild type p53 assessed as live cells at 20 uM measured after 72 hrs by annexin V-FITC/propidium iodide staining-based flow cytometry analysis (reference value: 83.7 %). Type of assay: functional.
In assay [5] the target is E3 ubiquitin-protein ligase Mdm2 (Homo sapiens, UniProt Q00987).
A further assay addresses T1, Protein Mdm4 (Homo sapiens, UniProt O15151).
T1 sequence (O15151 whole entry): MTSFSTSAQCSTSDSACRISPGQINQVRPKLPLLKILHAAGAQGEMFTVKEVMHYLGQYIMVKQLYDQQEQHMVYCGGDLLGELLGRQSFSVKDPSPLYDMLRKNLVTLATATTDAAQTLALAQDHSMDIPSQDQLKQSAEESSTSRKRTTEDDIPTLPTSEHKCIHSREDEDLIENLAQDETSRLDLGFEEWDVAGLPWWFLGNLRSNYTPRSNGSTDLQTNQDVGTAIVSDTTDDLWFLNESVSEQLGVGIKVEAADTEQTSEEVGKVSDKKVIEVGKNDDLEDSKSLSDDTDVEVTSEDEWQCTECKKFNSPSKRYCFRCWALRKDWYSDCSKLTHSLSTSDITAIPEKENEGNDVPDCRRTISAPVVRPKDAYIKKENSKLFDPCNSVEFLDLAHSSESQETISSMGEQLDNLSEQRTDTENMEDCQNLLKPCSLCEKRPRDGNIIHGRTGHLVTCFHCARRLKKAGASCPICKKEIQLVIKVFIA

Sequence of E3 ubiquitin-protein ligase Mdm2 (Q00987 whole entry): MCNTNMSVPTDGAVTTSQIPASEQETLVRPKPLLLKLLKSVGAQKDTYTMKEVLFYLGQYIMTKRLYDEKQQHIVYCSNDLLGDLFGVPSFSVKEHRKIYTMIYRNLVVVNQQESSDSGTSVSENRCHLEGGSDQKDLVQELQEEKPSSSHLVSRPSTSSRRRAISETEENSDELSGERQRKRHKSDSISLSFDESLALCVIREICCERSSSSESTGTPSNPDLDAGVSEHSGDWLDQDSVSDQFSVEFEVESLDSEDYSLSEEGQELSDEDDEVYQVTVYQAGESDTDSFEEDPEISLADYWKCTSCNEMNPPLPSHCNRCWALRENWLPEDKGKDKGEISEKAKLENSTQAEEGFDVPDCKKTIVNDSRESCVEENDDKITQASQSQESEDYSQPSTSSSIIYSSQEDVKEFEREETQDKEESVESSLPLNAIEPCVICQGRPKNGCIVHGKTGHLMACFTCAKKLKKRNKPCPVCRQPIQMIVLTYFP

As for `CC1(C)[C@H]2CC[C@@]1(C)C(NC(=O)C(c1c(C(=O)O)[nH]c3cc(Cl)ccc13)N(C=O)Cc1ccc(OCc3ccccc3Br)cc1)C2` (some centres undefined), the EC50 (commonly the concentration needed to bring the measured effect to its halfway point) with SAOS-2 worked out at 60 µM; in the assay on U2OS, 40 µM.
On to `COc1ccc(C2=N[C@@H](c3ccc(Cl)cc3)[C@@H](c3ccc(Cl)cc3)N2C(=O)N2CCNC(=O)C2)c(OC(C)C)c1` [NUTLIN-3], for which the Activity in the assay on HCT-116 [1] is 1.2%; in the assay with HCT-116 [2], 18.9%; in the assay on HCT-116 [3] it was 26.9%; in the assay with HCT-116 [4], 53%. Further, the Ki result in assay [5] is reported as “Not Active”.
In the case of `CC(C)(C)NC(=O)[C@H](c1c(C(=O)O)[nH]c2cc(Cl)ccc12)N(C=O)Cc1ccc(OCc2ccccc2Br)cc1`, the figures for the EC50 with SAOS-2 and with U2OS were 200 µM and 130 µM, respectively.
Consider `O=CN(Cc1ccc(OCc2ccccc2Br)cc1)C(C(=O)NC1C2CC3CC(C2)CC1C3)c1c(C(=O)O)[nH]c2cc(Cl)ccc12` (centres undefined), for which the EC50 worked out at 130 µM with SAOS-2 and 40 µM in the assay with U2OS.
Consider `CC(C)(C)NC(=O)C(c1ccc(Cl)cc1)N(C=O)Cc1ccc(OCc2ccc(Cl)c(Cl)c2)cc1` (centres undefined), for which the Ki result (on Protein Mdm4; in assay [5]) was “Not Active” throughout.
Take `CC(C)(C)NC(=O)C(c1cccc(Cl)c1)N(C=O)Cc1ccc(Cl)cc1` (centres undefined): the Ki result (at Protein Mdm4; in assay [5]) was “Not Active” in each case.
In the case of `CC(C)(C)NC(=O)C(c1c(C(=O)O)[nH]c2cc(Cl)ccc12)N(C=O)Cc1ccc(OCc2cccnc2)cc1` (centres undefined), the Ki entry (at Protein Mdm4; in assay [5]) was “Not Active” in each case.
`CN(Cc1ccc(OCc2ccccc2Br)cc1)C(C(=O)NC(C)(C)C)c1c(C(=O)O)[nH]c2cc(Cl)ccc12` (centres undefined): the Ki result (at Protein Mdm4; in assay [5]) was “Not Active” in each case.
